{"source": "patent US20090209527A1", "about": "“Methods for Using Rapamycin Analogues in the Treatment of Neurological Disorders” (Wyeth, priority 2008, published 2009)", "key": {"cortical neuron cultures": {"system": "cortical neuron cultures", "experiment": "Cortical neuron assay (neurite outgrowth in dissociated cortical neuron cultures)", "assay_type": "cell-based, rat", "protocol": "Dissociated cortical neuron cultures were prepared as previously described (Liu et al., Screening of Immunophilin Ligands by Quantitative Analysis of Neurofilament Expression and Neurite Outgrowth in Cultured Neurons and Cells, J. Neurosci. Methods, 2007 Jul. 30; 163(2):310-20).\nBriefly, embryonic day 15 rat fetuses were collected and dissected in ice-cold PBS. Dissected cortices were pooled together and transferred to an enzymatic dissociation medium containing papain. After 30 minutes, the tissue was mechanically triturated with a fire-polished glass Pasteur pipette. Single-cell suspensions in complete media were seeded on poly-L-ornithine and laminin coated 96-well plates. After 24 hours, cultures were treated with various concentrations of compound for 72 hours. The cultures were then fixed and stained with an anti-tubulin primary antibody (TUJ-1) and a fluorescent-tagged secondary antibody. Neurite outgrowth was determined by using the Enhanced Neurite Outgrowth (ENO) algorithm with the Cellomics ArrayScan and expressed as average neurite length or total neurite length per cell."}, "pMCAO in rats": {"system": "pMCAO in rats", "experiment": "Further pMCAO studies, treatment paradigms (first dose 2, 6 or 24 hours post-occlusion)", "assay_type": "in vivo, rat", "settings": "for neurological function following pMCAO vs vehicle: 5 total doses, 3-week period; for neurological function following pMCAO, long-term: additional 3 months", "text": "Rats were subjected to pMCAO and treated with either the compound of Example 2 delivered intravenously into rat tail vein [iv vehicle: 5% Tween 80, 5% PEG 400, 4% ethanol] or vehicle alone. Three different treatment paradigms were used to determine the clinical relevance of the compound of Example 2. Long-term sensorimotor deficits are monitored (tactile/proprioceptive/hindlimb placement tests) over a 3-week and 6-month period. The animals are scored on a scale of 0-12 (normal to severe neurological deficits).\nIn the first study, the first dose of 10 mg/kg of the compound of Example 2 is given 2 hours post-occlusion, followed by 4 additional doses, 24 hours apart (5 total doses). Neurological deficits were monitored over a 3-week period.\nIn the second study, the first dose of the compound of Example 2 is given 6 hours post-occlusion, followed by 4 additional doses, 24 hours apart (5 total doses). Neurological deficits were monitored over a 3-week period.\nThese animals were maintained for an additional 3 months. During this period, neurological deficits were continually monitored, to determine whether the effect seen at 21 days is stable and long lasting.\nIn the third study, the first dose of the compound of Example 2 is given 24 hours post-occlusion, followed by 4 additional doses, 24 hours apart (5 total doses). Neurological deficits were monitored over a 3-week period.\nBrains from animals in the third study were collected and processed for neuronal, regenerative, and cell death markers."}, "tMCAO in rats": {"system": "tMCAO in rats", "experiment": "Transient middle cerebral artery occlusion (tMCAO) model of ischemic stroke", "assay_type": "in vivo, rat", "settings": "for reduction of infarct volume: 72 hours", "protocol": "The compound of Example 2 was evaluated in two known rodent models of ischemic stroke. [Bederson J B, Pitts L H, Tsuji M, Nishimura M C, Davis R L, Bartkowski H (1986) Rat middle cerebral artery occlusion: evaluation of the model and development of a neurologic examination. Stroke 17(3): 472-476; Chen S T, Hsu C Y, Hogan E L, Maricq H Balentine J D (1986) A model of focal ischemic stroke in the rat: reproducible extensive cortical infarction. Stroke 17:738-743. DeRyck M, van Reempts J, Duytschaever H, van Deuren B, Clincke G (1992) Neocortical localization of tactile/proprioceptive limb placing reactions in the rat. Brain Res 573:44-60; Longa Z E, Weinstein P R, Carlson S, Cummins R. (1989) Reversible middle cerebral artery occlusion without craniectomy in rats. Stroke 20:294-297.]\nThe first model is a transient middle cerebral artery occlusion (tMCAO), in which the MCA is occluded for 90 minutes, followed by 72 hours of reperfusion. Rats were subjected to tMCAO and treated with either the compound of Example 2 (3 mg/kg, 10 mg/kg, or 30 mg/kg) via intravenous delivery [iv vehicle: 5% Tween 80, 5% PEG 400, 4% ethanol] or vehicle alone at 4, 6, 24, and 48 hours post-occlusion (4 total doses). Neurological deficits (modified Bederson scale) and weight loss were monitored at 0, 24, 48, and 72 hours post occlusion. At the end of the evaluation period, rats were euthanized and infarct volume was determined. A modified Bederson scale was used to evaluate neurological deficits following stroke. Animals were scored on a scale of 0 to 5, based on five parameters (forelimb flexion, torso twisting, resistant to lateral push, circling to contralateral side, and spontaneous circling). A score of 0 is normal whereas a score of 5 represents severe neurological deficits."}, "[1]": {"settings": "10 mg/kg iv, first dose 6 hours post-occlusion"}, "[2]": {"settings": "30 mg/kg iv, first dose 6 hours post-occlusion"}, "[3]": {"settings": "30 mg/kg, third study (first dose 24 hours post-occlusion)"}, "[4]": {"settings": "6 hour post-occlusion, dose not stated"}}, "note": "“Also recorded” adds a separate entry of the source."}
{"compound": "CO[C@H]1C[C@@H]2CC[C@@H](C)[C@@](O)(O2)C(=O)C(=O)N2CCCC[C@H]2C(=O)O[C@H]([C@H](C)C[C@@H]2CC[C@@H](O)[C@H](OC)C2)CC(=O)[C@H](C)/C=C(\\C)[C@@H](O)[C@@H](OC)C(=O)[C@H](C)C[C@H](C)[C@@H]2CC[C@H](/C=C/1C)ON2c1ccccc1", "note": "[Example 2, 9,27-dihydroxy-3-{2-[4-hydroxy-3-methoxycyclohexyl]-1-methylethyl}-10,21-dimethoxy-6,8,12,14,20,26-hexamethyl-37-phenyl-4,9,10,12,13,14,15,16,17,18,21,22,23,24,25,26,27,32,33,34,34a-henicosahydro-3H-23,27-epoxy-18,15-(epoxyimino)pyrido[2,1-c][1,4]oxazacyclohentriacontine-1,5,11,28,29(6H,31H)-pentone]", "values": [{"measurement": "EC50", "setting": "cortical neuron cultures; Rattus norvegicus, Cortical neurone, 72 hours treatment, neurite outgrowth, read-out: EC50 in cortical neuron assays", "result": "< 1000", "unit": "nM"}, {"measurement": "neuronal survival and neurite outgrowth in cultured cortical neurons", "setting": "cortical neuron cultures; summary statement", "result": "promotes neuronal survival and neurite outgrowth"}, {"measurement": "neurological function following pMCAO vs vehicle", "setting": "pMCAO in rats; 3 mg/kg iv, first dose 6 hours post-occlusion", "result": "did not improve neurological function"}, {"measurement": "neurological function following pMCAO vs vehicle", "setting": "pMCAO in rats; 3 mg/kg iv, first dose 24 hours post-occlusion", "result": "did not improve neurological function"}, {"measurement": "neurological function following pMCAO vs vehicle", "setting": "pMCAO in rats; 10 mg/kg iv, first dose 2 hours post-occlusion", "result": "significantly improved and accelerated neurological function; also recorded: improves neurological function"}, {"measurement": "neurological function following pMCAO vs vehicle", "setting": "pMCAO in rats; [1]", "result": "significantly improved and accelerated neurological function"}, {"measurement": "neurological function following pMCAO, long-term", "setting": "pMCAO in rats; [1]", "result": "further improved neurological function and this improvement was stable and long lasting"}, {"measurement": "neurological function following pMCAO vs vehicle", "setting": "pMCAO in rats; 10 mg/kg iv, first dose 24 hours post-occlusion", "result": "did not improve neurological function"}, {"measurement": "neurological function following pMCAO vs vehicle", "setting": "pMCAO in rats; [2]", "result": "significantly improved and accelerated neurological function"}, {"measurement": "neurological function following pMCAO, long-term", "setting": "pMCAO in rats; [2]", "result": "further improved neurological function and this improvement was stable and long lasting"}, {"measurement": "neurological function following pMCAO vs vehicle", "setting": "pMCAO in rats; 30 mg/kg iv, first dose 24 hours post-occlusion", "result": "significantly improved and accelerated neurological function"}, {"measurement": "apoptotic cell death (TUNEL labeling) in the hippocampus", "setting": "pMCAO in rats; [3]", "result": "reducing apoptotic cell death"}, {"measurement": "neuroprotection (Neu-N positive cells) in the hippocampus", "setting": "pMCAO in rats; [3]", "result": "promotes neuroprotection"}, {"measurement": "neuroregeneration (GAP-43 labeling) in the cortex", "setting": "pMCAO in rats; [3]", "result": "promotes neuroregeneration in the cortex"}, {"measurement": "neurological function following pMCAO (3-weeks) in rats (FIG. 12)", "setting": "pMCAO in rats; [4]", "result": "improves neurological function"}, {"measurement": "neurological function following pMCAO (3 months) in rats (FIG. 13)", "setting": "pMCAO in rats; [4]", "result": "improves neurological function"}, {"measurement": "neurological function following pMCAO (3 weeks) in rats (FIG. 14)", "setting": "pMCAO in rats; 24 hour post-occlusion, dose not stated", "result": "improves neurological function"}, {"measurement": "neuroregeneration in the hippocampus (FIG. 15)", "setting": "pMCAO in rats; dose not stated", "result": "promotes neuroregeneration in the hippocampus"}, {"measurement": "therapeutic window (time of first administration after onset of stroke)", "setting": "pMCAO in rats; rat models of ischemic stroke", "result": "at least 24 hours"}, {"measurement": "weight loss following tMCAO", "setting": "tMCAO in rats; 3 mg/kg iv", "result": "significantly attenuated weight loss"}, {"measurement": "neurological deficits (modified Bederson scale) following tMCAO vs vehicle", "setting": "tMCAO in rats; 3 mg/kg iv at 4, 6, 24 and 48 hours post-occlusion", "result": "showed trends of improving neurological deficits, but did not reach statistical significance"}, {"measurement": "reduction of infarct volume", "setting": "tMCAO in rats; 3 mg/kg iv, did not reach statistical significance", "result": 9, "unit": "%"}, {"measurement": "weight loss following tMCAO", "setting": "tMCAO in rats; 10 mg/kg iv", "result": "significantly attenuated weight loss"}, {"measurement": "neurological deficits (modified Bederson scale) following tMCAO vs vehicle", "setting": "tMCAO in rats; 10 mg/kg iv at 4, 6, 24 and 48 hours post-occlusion", "result": "significantly improved neurological deficits"}, {"measurement": "reduction of infarct volume", "setting": "tMCAO in rats; 10 mg/kg iv, significant vs vehicle", "result": 24, "unit": "%"}, {"measurement": "weight loss following tMCAO", "setting": "tMCAO in rats; 30 mg/kg iv", "result": "significantly attenuated weight loss"}, {"measurement": "neurological deficits (modified Bederson scale) following tMCAO vs vehicle", "setting": "tMCAO in rats; 30 mg/kg iv at 4, 6, 24 and 48 hours post-occlusion", "result": "significantly improved neurological deficits"}, {"measurement": "reduction of infarct volume", "setting": "tMCAO in rats; 30 mg/kg iv, significant vs vehicle", "result": 23, "unit": "%"}, {"measurement": "infarct volume following tMCAO in rats (FIG. 10)", "setting": "tMCAO in rats; dose not stated", "result": "reduces infarct volume"}, {"measurement": "neurological deficits following tMCAO in rats (FIG. 8)", "setting": "tMCAO in rats; dose not stated", "result": "improves neurological deficits"}, {"measurement": "weight loss following tMCAO in rats (FIG. 9)", "setting": "tMCAO in rats; dose not stated", "result": "attenuates weight loss"}]}
